Molecules are shown by their SMILES.

24 compounds from patent US20220395496A1 (Hoffmann-La Roche Inc., priority 2019, published 2022) can be followed below.

The target of the test is T1, human TLR9 (Homo sapiens, UniProt Q9NR96).
T1 sequence (Q9NR96 26-1032): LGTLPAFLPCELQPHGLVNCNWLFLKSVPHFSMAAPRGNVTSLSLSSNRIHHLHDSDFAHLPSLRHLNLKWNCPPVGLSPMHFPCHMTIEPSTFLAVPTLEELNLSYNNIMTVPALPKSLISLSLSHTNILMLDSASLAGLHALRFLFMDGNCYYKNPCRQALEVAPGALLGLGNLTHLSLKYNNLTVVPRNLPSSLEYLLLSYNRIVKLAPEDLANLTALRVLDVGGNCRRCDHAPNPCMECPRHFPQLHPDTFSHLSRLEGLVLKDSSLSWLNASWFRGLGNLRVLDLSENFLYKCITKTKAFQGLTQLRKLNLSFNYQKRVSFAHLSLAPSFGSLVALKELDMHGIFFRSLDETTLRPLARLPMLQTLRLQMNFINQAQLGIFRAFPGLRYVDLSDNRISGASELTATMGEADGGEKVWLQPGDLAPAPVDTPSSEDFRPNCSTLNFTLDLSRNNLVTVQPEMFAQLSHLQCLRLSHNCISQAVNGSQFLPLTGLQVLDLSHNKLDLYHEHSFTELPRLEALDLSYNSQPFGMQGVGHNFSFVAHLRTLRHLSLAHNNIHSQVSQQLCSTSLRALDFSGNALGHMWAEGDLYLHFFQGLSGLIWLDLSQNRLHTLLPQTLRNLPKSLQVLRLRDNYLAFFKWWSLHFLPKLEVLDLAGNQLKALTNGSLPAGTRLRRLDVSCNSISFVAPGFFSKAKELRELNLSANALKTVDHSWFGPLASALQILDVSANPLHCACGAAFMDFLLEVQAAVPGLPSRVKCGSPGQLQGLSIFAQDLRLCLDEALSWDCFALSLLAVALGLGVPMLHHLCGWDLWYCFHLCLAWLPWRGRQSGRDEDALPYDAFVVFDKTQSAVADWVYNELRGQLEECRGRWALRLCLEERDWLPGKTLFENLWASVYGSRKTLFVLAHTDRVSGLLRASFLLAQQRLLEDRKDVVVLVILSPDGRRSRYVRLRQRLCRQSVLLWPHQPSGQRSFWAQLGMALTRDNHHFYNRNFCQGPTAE
Nature of the test: HEK293-Blue-hTLR-9 cells assay (SEAP reporter, ODN2006 stimulation). Type of test: cell-based. The following applies: HEK293-Blue-hTLR9 cells, ODN2006, 20 hrs. The method, then:
The following tests were carried out in order to determine the activity of the compounds of this invention in HEK293-Blue-hTLR-7/8/9 cells assay.
HEK293-Blue-hTLR-9 Cells Assay:
A stable HEK293-Blue-hTLR-9 cell line was purchased from InvivoGen (Cat. #: hkb-htlr9, San Diego, Calif., USA). These cells were originally designed for studying the stimulation of human TLR9 by monitoring the activation of NF-κB. A SEAP (secreted embryonic alkaline phosphatase) reporter gene was placed under the control of the IFN-β minimal promoter fused to five NF-κB and AP-1-binding sites. The SEAP was induced by activating NF-κB and AP-1 via stimulating HEK-Blue hTLR9 cells with TLR9 ligands. Therefore the reporter expression was declined by TLR9 antagonist under the stimulation of a ligand, such as ODN2006 (Cat. #: tlr1-2006-1, Invivogen, San Diego, Calif., USA), for incubation of 20 hrs. The cell culture supernatant SEAP reporter activity was determined using QUANTI-Blue™ kit (Cat. #: rep-qb1, Invivogen, San Diego, Calif., USA) at a wavelength of 640 nm, a detection medium that turns purple or blue in the presence of alkaline phosphatase.
HEK293-Blue-hTLR9 cells were incubated at a density of 250,000˜450,000 cells/mL in a volume of 170 μL in a 96-well plate in Dulbecco's Modified Eagle's medium (DMEM) containing 4.5 g/L glucose, 50 U/mL penicillin, […], 2 mM L-glutamine, 10% (v/v) heat-inactivated fetal bovine serum with addition of 20 μL test compound in a serial dilution in the presence of final DMSO at 1% and 10 μL of 20 uM ODN2006 in above DMEM, perform incubation under 37° C. in a CO2 incubator for 20 hrs. Then 20 μL of the supernatant from each well was incubated with 180 μL Quanti-blue substrate solution at 37° C. for 2 hrs and the absorbance was read at 620˜655 nm using a spectrophotometer. The signalling pathway that TLR9 activation leads to downstream NF-κB activation has been widely accepted, and therefore similar reporter assay was modified for evaluating TLR9 antagonist.
Usually IC50 stands for the point on the concentration scale where inhibition reaches its midpoint. On to `C[C@H]1C[C@@H](NCc2ccc(N3CCC(N)C3)cc2)CN(c2ccc(C#N)c3ncccc23)C1` (stereo partly drawn) [Example 13, 5-[(3R,5S)-3-[[4-(3-aminopyrrolidin-1-yl)phenyl]methylamino]-5-methyl-1-piperidyl]quinoline-8-carbonitrile], for which the IC50 amounted to 163 nM.

In turn, `C[C@H]1C[C@@H](NCc2ccccc2)CN(c2ccc(C#N)c3ncccc23)C1` [Example R1, reference compound] had an IC50 of 1870 nM. In the case of `C[C@H]1C[C@@H](NCc2cccc(N3CCN(C)CC3)c2)CN(c2ccc(C#N)c3ncccc23)C1` [Example 6, 5-[(3S,5R)-3-methyl-5-[[3-(4-methylpiperazin-1-yl)phenyl]methylamino]-1-piperidyl]quinoline-8-carbonitrile] it was 70 nM; in that of `C[C@H]1C[C@@H](N2Cc3cc(N4CCNCC4)cnc3C2)CN(c2ccc(C#N)c3ncccc23)C1` [Example 23, 5-[(3S,5R)-3-methyl-5-(3-piperazin-1-yl-5,7-dihydropyrrolo[3,4-b]pyridin-6-yl)-1-piperidyl]quinoline-8-carbonitrile], 92 nM. For `C[C@H]1C[C@@H](NCc2cnc(N3CCNCC3)cn2)CN(c2ccc(C#N)c3ncccc23)C1` [Example 31, 5-[(3S,5R)-3-methyl-5-[(5-piperazin-1-ylpyrazin-2-yl)methylamino]-1-piperidyl]quinoline-8-carbonitrile], the IC50 was 47 nM. The result for `C[C@H]1C[C@@H](N2Cc3ccccc3C2)CN(c2ccc(C#N)c3ncccc23)C1` [Example R2, reference compound] reads 8660 nM; that for `C[C@H]1C[C@@H](NCc2cnc(N3CCNCC3)nc2)CN(c2ccc(C#N)c3ncccc23)C1` [Example 17, 5-[(3S,5R)-3-methyl-5-[(2-piperazin-1-ylpyrimidin-5-yl)methylamino]-1-piperidyl]quinoline-8-carbonitrile], 60 nM.

On to `C[C@H]1C[C@@H](NCc2cccc(N3CCNCC3)c2)CN(c2ccc(C#N)c3ncccc23)C1` [Example 8, 5-[(3S,5R)-3-methyl-5-[(3-piperazin-1-ylphenyl)methylamino]-1-piperidyl]quinoline-8-carbonitrile], for which inhibition was half-maximal at 88 nM (IC50). This IC50 and that of the compound before are within 1.5-fold of each other. The result for `C[C@H]1C[C@@H](NCc2ccc3c(c2)CCNC3)CN(c2ccc(C#N)c3ncccc23)C1` [Example 11, 5-[(3S,5R)-3-methyl-5-(1,2,3,4-tetrahydroisoquinolin-6-ylmethylamino)-1-piperidyl]quinoline-8-carbonitrile] reads 82 nM. `C[C@H]1C[C@@H](NCc2cnc(N3CCN(C)CC3)nc2)CN(c2ccc(C#N)c3ncccc23)C1` [Example 16, 5-[(3S,5R)-3-methyl-5-[[2-(4-methylpiperazin-1-yl)pyrimidin-5-yl]methylamino]-1-piperidyl]quinoline-8-carbonitrile]: the IC50 is 77 nM.

Turning to `C[C@H]1C[C@@H](N(C)Cc2ccc(N3CCNCC3)cc2)CN(c2ccc(C#N)c3ncccc23)C1` [Example 9, 5-[(3S,5R)-3-methyl-5-[methyl-[(4-piperazin-1-ylphenyl)methyl]amino]-1-piperidyl]quinoline-8-carbonitrile], inhibition was half-maximal at 95 nM (IC50). The IC50 values of the last two compounds are within 1.5-fold of each other.

For `C[C@H]1C[C@@H](NCc2ccc(N3CCNCC3)cc2)CN(c2ccc(C#N)n3nccc23)C1` [Example 21, 4-[(3S,5R)-3-methyl-5-[(4-piperazin-1-ylphenyl)methylamino]-1-piperidyl]pyrazolo[1,5-a]pyridine-7-carbonitrile], it took 94 nM to reach half-maximal inhibition (IC50). `Cc1cc(-c2ccc(CN[C@@H]3C[C@H](C)CN(c4ccc(C#N)c5ncccc45)C3)cc2)cc(C)n1` [Example 15, 5-[(3R,5S)-3-[[4-(2,6-dimethyl-4-pyridyl)phenyl]methylamino]-5-methyl-1-piperidyl]quinoline-8-carbonitrile] showed an IC50 of 126 nM. Compound `C[C@H]1C[C@@H](NCc2cnc(N3CCN[C@H](C)C3)nc2)CN(c2ccc(C#N)c3ncccc23)C1` [Example 28, 5-[(3S,5R)-3-methyl-5-[[2-[(3R)-3-methylpiperazin-1-yl]pyrimidin-5-yl]methylamino]-1-piperidyl]quinoline-8-carbonitrile] returned a concentration for half-maximal inhibition (IC50) of 48 nM.

As to `C[C@H]1C[C@@H](NCc2ccc(N3CCNCC3)cc2)CN(c2ccc(C#N)c3ncccc23)C1` [Example 1, 5-[(3S,5R)-3-methyl-5-[(4-piperazin-1-ylphenyl)methylamino]1-piperidyl]quinoline-8-carbonitrile], half-maximal inhibition (IC50) required 55 nM. The result for `C[C@H]1C[C@@H](NCc2ccc(N3CCNCC3)cc2F)CN(c2ccc(C#N)c3ncccc23)C1` [Example 4, 5-[(3R,58)-3-[(2-fluoro-4-piperazin-1-yl-phenyl)methylamino]-5-methyl-1-piperidyl]quinoline-8-carbonitrile] reads 94 nM. The result for `CC(N[C@@H]1C[C@H](C)CN(c2ccc(C#N)c3ncccc23)C1)c1ccc(N2CCNCC2)cc1` (stereo partly drawn) [Example 26, 5-[(3S,5R)-3-methyl-5-[1-(4-piperazin-1-ylphenyl)ethylamino]-1-piperidyl]quinoline-8-carbonitrile] reads 55 nM; that for `C[C@H]1C[C@@H](NCc2ccc(N3CCN(C)CC3)cn2)CN(c2ccc(C#N)c3ncsc23)C1` [Example 18, 7-[(3S,5R)-3-methyl-5-[[5-(4-methylpiperazin-1-yl)-2-pyridyl]methylamino]-1-piperidyl]-1,3-benzothiazole-4-carbonitrile], 116 nM. In the case of `C[C@H]1C[C@@H](NCc2cnc(N3CCN[C@@H](C)C3)nc2)CN(c2ccc(C#N)c3ncccc23)C1` [Example 29, 5-[(3S,5R)-3-methyl-5-[[2-[(3S)-3-methylpiperazin-1-yl]pyrimidin-5-yl]methylamino]-1-piperidyl]quinoline-8-carbonitrile] it was 32 nM.

The compound `C[C@H]1C[C@@H](NCc2ccc(C3CCNCC3)cc2)CN(c2ccc(C#N)c3ncccc23)C1` [Example 2, 5-[(3S,5R)-3-methyl-5-[[4-(4-piperidyl)phenyl]methylamino]-1-piperidyl]quinoline-8-carbonitrile] yielded an IC50 of 75 nM.

On to `C[C@H]1C[C@@H](NCc2ncc(N3CCNCC3)cn2)CN(c2ccc(C#N)c3ncccc23)C1` [Example 25, 5-[(3S,5R)-3-methyl-5-[(5-piperazin-1-ylpyrimidin-2-yl)methylamino]-1-piperidyl]quinoline-8-carbonitrile], for which the IC50 worked out at 61 nM. This IC50 and that of the compound before are within 1.5-fold of each other. The result for `C[C@H]1C[C@@H](NCc2ccc(N3CCNCC3)nc2)CN(c2ccc(C#N)c3ncccc23)C1` [Example 10] reads 68 nM. In the case of `C[C@H]1C[C@@H](N2CCc3cc(N4CCNCC4)ccc3C2)CN(c2ccc(C#N)c3ncccc23)C1` (relative stereo) [Example 24, 5-[cis-3-methyl-5-(6-piperazin-1-yl-3,4-dihydro-1H-isoquinolin-2-yl)-1-piperidyl]quinoline-8-carbonitrile] it was 70 nM. The result for `C[C@H]1C[C@@H](NCc2ccc3c(n2)CCNC3)CN(c2ccc(C#N)c3ncccc23)C1` [Example 30, 5-[(3S,5R)-3-methyl-5-(5,6,7,8-tetrahydro-1,6-naphthyridin-2-ylmethylamino)-1-piperidyl]quinoline-8-carbonitrile] reads 33 nM.
